Here are results for six molecules from US5017703A, “Indolylpiperidine compounds, processes for the preparation thereof and pharmaceutical composition comprising the same” (Fujisawa Pharmaceutical Company, Ltd., priority 1988, dated 1991).

Each structure is given as a SMILES string. Converted amounts (≈) assume the structure as drawn.

Assay [1] relates to anaphylactic asthma in guinea pigs. The experiment in a line: Antagonistic action on anaphylactic asthma in guinea pigs. Type of assay: in vivo, Male Hartley-strain guinea pigs. The following applies: Cavia porcellus; oral, 30 min before 5% egg-white albumin aerosol; passively sensitized guinea pigs, 5 per group; survival for not less than 2 hours; read-out: Prophylactic Effect ED50. The method, then:
Antagonistic action on anaphylactic asthma in guinea pigs.
Male Hartley-strain guinea pigs weighing 305-400g were used. These animals were sensitized by intravenous injection of 0.5 ml/animal of rabbit antiserum to egg-white albumin (PCA antibody titer 4,000). After 24 hours, the animals were housed individually in 5.3-liter plastic chambers. Using a commercial sprayer, a 5% egg-white albumin solution was sprayed in the form of an aerosol into each chamber at a rate of 0.16 ml/min for 2 minutes. Thirty minutes prior to the spraying of the egg-white albumin solution, the test compound was administered orally in varied concentrations. Each dosed group consisted of 5 animals. The prophylactic effect to anaphylaxis was expressed in terms of the ED50 value determined on the basis of the number of guinea pigs which had survived for not less than 2 hours after antigen spraying for each administration concentration of the test compound.

Assay [2] deals with SRS-A synthesis or release from peritoneal exudate cells. The experiment in a line: Anti-SRS-A activity (SRS-A synthesis or release from peritoneal exudate cells). The note with it: rat peritoneal exudate cells, Ca++-ionophore A23187 1 μg/ml, indomethacin 10 μg/ml; SRS-A determined by contractility of isolated guinea pig ileum; read-out: Inhibitory Concentration IC50. Type of assay: cell-based, SD rats. The protocol:
Peritoneal exudate cells were collected from glycogen-injected SD rats and adjusted to 1×10^7 cells/ml with Tyrode's solution. One milliliter of the cell suspension was incubated with indomethacin (10 μg/ml) and each varied concentration of the test compound for 10 minutes and, then, further incubated with Ca^++ -ionophore (A23187, 1 μg/ml) for 10 minutes. The supernatant was collected by centrifugation and the SRS-A (slow-reacting substance of anaphylaxis) activity was determined in terms of contractility of the isolated guinea pig ileum in the presence of mepyramine, atropine and methysergide.
The results were expressed in terms of the 50% inhibitory concentration to SRS-A synthesis or release from peritoneal exudate cells.

As a reminder, the ED50 is the dose at which the effect has come halfway, by size or by number of responders. Regarding `COc1cc(/C=C/C=C/C(=O)NCCCCN2CCC(c3c[nH]c4ccccc34)CC2)ccc1O` [Compound A, 1-[4-{5-(4-Hydroxy-3-methoxyphenyl)-(2E, 4E)-2,4-pentadienoylamino}butyl]-4-(3-indolyl)-piperidine], the ED50 in assay [1] was 0.5 mg/kg.

As for `COc1cc(/C=C/C=C/C(=O)NCCN2CCC(c3c[nH]c4ccccc34)CC2)ccc1O` [Compound B, 1-[2-{5-(4-Hydroxy-3-methoxyphenyl)-(2E, 4E)-2,4-pentadienoylamino}ethyl]-4-(3-indolyl)piperidine], the IC50 in assay [2] was 0.91 µg/mL (≈ 2.04 µM).

Take `COc1cc(/C=C/C=C/C(=O)NCCN2CCC(c3c[nH]c4ccccc34)CC2)cc(OC)c1O` [Compound C, 1-[2-{5-(4-Hydroxy-3,5-dimethoxyphenyl)-(2E, 4E)-2,4-pentadienoylamino}ethyl]-4-(3-indolyl)piperidine]: the IC50 in assay [2] is 0.68 µg/mL (≈ 1.43 µM). The median effective dose (ED50) in assay [1] was determined as 0.5 mg/kg.

With `COc1cc(/C=C/C=C/C(=O)NCCN2CCC(c3c[nH]c4ccccc34)CC2)ccc1OC(C)=O` [Compound D, 1-[2-{5-(4-Acetoxy-3-methoxyphenyl)-(2E, 4E)-2,4-pentadienoylamino}ethy]-4-(3-indolyl)piperidine], the IC50 in assay [2] worked out at 0.6 µg/mL (≈ 1.23 µM).

Take `COc1cc(/C=C/C=C/C(=O)NCCN2CCC(c3c[nH]c4ccccc34)CC2)cc(OC)c1OC(C)=O` [Compound E, 1-[2-{5-(4-Acetoxy-3,5-dimethoxyphenyl)-(2E, 4E)-2,4-pentadienoylamino}ethyl]-4-(3-indolyl)piperidine]: in assay [2], the IC50 was 0.23 µg/mL (≈ 0.444 µM).

With `O=C(/C=C/C=C/c1cc(Cl)c(O)c(Cl)c1)NCCN1CCC(c2c[nH]c3ccccc23)CC1` [Compound F, 1-[2-{5-(3,5-Dichloro-4-hydroxyphenyl)-(2E, 4E)-2,4-pentadienoylamino}ethyl]-4-(3-indolyl)piperidine], in assay [2], the IC50 turned out to be 0.65 µg/mL (≈ 1.34 µM).
